According to BigSolDB 2.1:

CC[C@@]1(O)C(=O)OCc2c1cc1n(c2=O)Cc2cc3ccccc3nc2-1
Details	solubility (mole fraction)
in chloroform, 275.76 K	0.000222
in chloroform, 279.07 K	0.000246
in chloroform, 282.38 K	0.000272
in chloroform, 285.02 K	0.000288
in chloroform, 287.55 K	0.000308
in chloroform, 291.19 K	0.000332
in chloroform, 294.18 K	0.000354
in chloroform, 297.25 K	0.000375
in chloroform, 300.57 K	0.000404
in chloroform, 303.1 K	0.000421
in chloroform, 305.96 K	0.000441
in chloroform, 308.51 K	0.000465
in chloroform, 311.59 K	0.000489
in chloroform, 315.12 K	0.000513
in chloroform, 318.31 K	0.000544
in chloroform, 322.39 K	0.000575
in chloroform, 326.25 K	0.000613
in ethanol, 277.98 K	9.03e-06
in ethanol, 281.62 K	1.08e-05
in ethanol, 284.67 K	1.25e-05
in ethanol, 287.95 K	1.39e-05
in ethanol, 291 K	1.6e-05
in ethanol, 294.63 K	1.78e-05
in ethanol, 297.81 K	2.01e-05
in ethanol, 301.09 K	2.24e-05
in ethanol, 304.26 K	2.46e-05
in ethanol, 307.54 K	2.76e-05
in ethanol, 310.47 K	3.06e-05
in ethanol, 313.63 K	3.33e-05
in ethanol, 316.57 K	3.68e-05
in ethanol, 319.26 K	4.01e-05
in ethanol, 321.7 K	4.31e-05
in ethanol, 324.43 K	4.64e-05
in ethanol, 326.3 K	4.91e-05
in methanol, 277.52 K	1.27e-05
in methanol, 280.45 K	1.43e-05
in methanol, 283.37 K	1.57e-05
in methanol, 286.2 K	1.72e-05
in methanol, 289.49 K	1.95e-05
in methanol, 293.24 K	2.2e-05
in methanol, 296.6 K	2.49e-05
in methanol, 299.68 K	2.74e-05
in methanol, 302.78 K	3.03e-05
in methanol, 305.61 K	3.35e-05
in methanol, 308.45 K	3.66e-05
in methanol, 311.02 K	4e-05
in methanol, 313.77 K	4.37e-05
in methanol, 316.53 K	4.78e-05
in methanol, 319.02 K	5.2e-05
in methanol, 321.42 K	5.59e-05
in methanol, 323.48 K	5.95e-05
